Legend:
Format in all cases: functional
Staphylococcus aureus [1] = experiment: Antimicrobial activity against methicillin-susceptible Staphylococcus aureus isolated from ICU patient urine assessed as resistant isolates by broth microdilution method
Enterobacter cloacae [2] = experiment: Antimicrobial activity against carbapenem-resistant Enterobacter cloacae isolated from ICU patient blood assessed as resistant isolates by broth microdilution method
Escherichia coli [3] = experiment: Antimicrobial activity against CTX-M ESBL producing Escherichia coli isolated from ICU patient blood assessed as resistant isolates by broth microdilution method
Enterobacter cloacae [4] = experiment: Antimicrobial activity against carbapenem-resistant Enterobacter cloacae isolated from ICU patient urine assessed as resistant isolates by broth microdilution method
[5] = test system: Staphylococcus epidermidis; experiment: Antimicrobial activity against methicillin-susceptible Staphylococcus epidermidis isolated from ICU patient respiratory tract assessed as resistant isolates by broth microdilution method
Klebsiella pneumoniae [6] = experiment: Antimicrobial activity against ESBL producing Klebsiella pneumoniae isolated from ICU patient respiratory tract assessed as resistant isolates by broth microdilution method
Pseudomonas aeruginosa [7] = experiment: Antimicrobial activity against carbapenem-resistant Pseudomonas aeruginosa assessed as resistant isolates by broth microdilution method
Enterobacter cloacae [8] = experiment: Antimicrobial activity against carbapenem-resistant Enterobacter cloacae isolated from ICU patient respiratory tract assessed as resistant isolates by broth microdilution method
Klebsiella pneumoniae [9] = experiment: Antimicrobial activity against ESBL producing Klebsiella pneumoniae isolated from ICU patient wound assessed as resistant isolates by broth microdilution method
Escherichia coli [10] = experiment: Antimicrobial activity against CTX-M ESBL producing Escherichia coli isolated from ICU patient respiratory tract assessed as resistant isolates by broth microdilution method
[11] = test system: Staphylococcus epidermidis; experiment: Antimicrobial activity against methicillin-susceptible Staphylococcus epidermidis isolated from ICU patient urine assessed as resistant isolates by broth microdilution method
Streptococcus pneumoniae [12] = experiment: Antimicrobial activity against penicillin-resistant Streptococcus pneumoniae isolated from ICU patient respiratory tract assessed as resistant isolates by broth microdilution method
Pseudomonas aeruginosa [13] = experiment: Antimicrobial activity against carbapenem-resistant Pseudomonas aeruginosa isolated from ICU patient blood assessed as resistant isolates by broth microdilution method
Staphylococcus aureus [14] = experiment: Antimicrobial activity against methicillin-susceptible Staphylococcus aureus isolated from ICU patient blood assessed as resistant isolates by broth microdilution method
Escherichia coli [15] = experiment: Antimicrobial activity against CTX-M ESBL producing Escherichia coli assessed as resistant isolates by broth microdilution method
Klebsiella pneumoniae [16] = experiment: Antimicrobial activity against ESBL producing Klebsiella pneumoniae isolated from ICU patient urine assessed as resistant isolates by broth microdilution method
[17] = test system: Staphylococcus epidermidis; experiment: Antimicrobial activity against methicillin-susceptible Staphylococcus epidermidis isolated from ICU patient blood assessed as resistant isolates by broth microdilution method
Enterobacter cloacae [18] = experiment: Antimicrobial activity against carbapenem-resistant Enterobacter cloacae isolated from ICU patient wound assessed as resistant isolates by broth microdilution method
Staphylococcus aureus [19] = experiment: Antimicrobial activity against methicillin-susceptible Staphylococcus aureus isolated from ICU patient respiratory tract assessed as resistant isolates by broth microdilution method
[20] = test system: Staphylococcus epidermidis; experiment: Antimicrobial activity against methicillin-resistant Staphylococcus epidermidis assessed as resistant isolates by broth microdilution method
Klebsiella pneumoniae [21] = experiment: Antimicrobial activity against ESBL producing Klebsiella pneumoniae assessed as resistant isolates by broth microdilution method
Staphylococcus aureus [22] = experiment: Antimicrobial activity against methicillin-susceptible Staphylococcus aureus assessed as resistant isolates by broth microdilution method
[23] = test system: Staphylococcus epidermidis; experiment: Antimicrobial activity against methicillin-resistant Staphylococcus epidermidis isolated from ICU patient urine assessed as resistant isolates by broth microdilution method
Staphylococcus aureus [24] = experiment: Antimicrobial activity against methicillin-resistant Staphylococcus aureus isolated from ICU patient respiratory tract assessed as resistant isolates by broth microdilution method
Staphylococcus aureus [25] = experiment: Antimicrobial activity against methicillin-resistant Staphylococcus aureus assessed as resistant isolates by broth microdilution method
Enterobacter cloacae [26] = experiment: Antimicrobial activity against carbapenem-resistant Enterobacter cloacae assessed as resistant isolates by broth microdilution method
Klebsiella pneumoniae [27] = experiment: Antimicrobial activity against ESBL producing Klebsiella pneumoniae isolated from ICU patient blood assessed as resistant isolates by broth microdilution method
[28] = test system: Staphylococcus epidermidis; experiment: Antimicrobial activity against methicillin-resistant Staphylococcus epidermidis isolated from ICU patient wound assessed as resistant isolates by broth microdilution method
Pseudomonas aeruginosa [29] = experiment: Antimicrobial activity against carbapenem-resistant Pseudomonas aeruginosa isolated from ICU patient respiratory tract assessed as resistant isolates by broth microdilution method
Haemophilus influenzae [30] = experiment: Antimicrobial activity against Haemophilus influenzae assessed as resistant isolates by broth microdilution method
[31] = test system: Staphylococcus epidermidis; experiment: Antimicrobial activity against methicillin-susceptible Staphylococcus epidermidis assessed as resistant isolates by broth microdilution method
Staphylococcus aureus [32] = experiment: Antimicrobial activity against methicillin-resistant Staphylococcus aureus isolated from ICU patient blood assessed as resistant isolates by broth microdilution method
Staphylococcus aureus [33] = experiment: Antimicrobial activity against methicillin-resistant Staphylococcus aureus isolated from ICU patient wound assessed as resistant isolates by broth microdilution method
Escherichia coli [34] = experiment: Antimicrobial activity against CTX-M ESBL producing Escherichia coli isolated from ICU patient wound assessed as resistant isolates by broth microdilution method
Streptococcus pneumoniae [35] = experiment: Antimicrobial activity against penicillin-resistant Streptococcus pneumoniae isolated from ICU patient blood assessed as resistant isolates by broth microdilution method
[36] = test system: Staphylococcus epidermidis; experiment: Antimicrobial activity against methicillin-resistant Staphylococcus epidermidis isolated from ICU patient blood assessed as resistant isolates by broth microdilution method
Staphylococcus aureus [37] = experiment: Antimicrobial activity against methicillin-resistant Staphylococcus aureus isolated from ICU patient urine assessed as resistant isolates by broth microdilution method
Pseudomonas aeruginosa [38] = experiment: Antimicrobial activity against carbapenem-resistant Pseudomonas aeruginosa isolated from ICU patient wound assessed as resistant isolates by broth microdilution method
Staphylococcus aureus [39] = experiment: Antimicrobial activity against methicillin-susceptible Staphylococcus aureus isolated from ICU patient wound assessed as resistant isolates by broth microdilution method
Streptococcus pneumoniae [40] = experiment: Antimicrobial activity against penicillin-resistant Streptococcus pneumoniae assessed as resistant isolates by broth microdilution method
Haemophilus influenzae [41] = experiment: Antimicrobial activity against Haemophilus influenzae isolated from ICU patient wound assessed as resistant isolates by broth microdilution method
Haemophilus influenzae [42] = experiment: Antimicrobial activity against Haemophilus influenzae isolated from ICU patient respiratory tract assessed as resistant isolates by broth microdilution method
Streptococcus pneumoniae [43] = experiment: Antimicrobial activity against penicillin-resistant Streptococcus pneumoniae isolated from ICU patient wound assessed as resistant isolates by broth microdilution method
[44] = test system: Staphylococcus epidermidis; experiment: Antimicrobial activity against methicillin-susceptible Staphylococcus epidermidis isolated from ICU patient wound assessed as resistant isolates by broth microdilution method
Escherichia coli [45] = experiment: Antimicrobial activity against CTX-M ESBL producing Escherichia coli isolated from ICU patient urine assessed as resistant isolates by broth microdilution method
Haemophilus influenzae [46] = experiment: Antimicrobial activity against Haemophilus influenzae isolated from ICU patient blood assessed as resistant isolates by broth microdilution method
Pseudomonas aeruginosa [47] = experiment: Antimicrobial activity against carbapenem-resistant Pseudomonas aeruginosa isolated from ICU patient urine assessed as resistant isolates by broth microdilution method

SMILES: CO/N=C(\C(=O)N[C@@H]1C(=O)N2C(C(=O)O)=C(CSc3nc(=O)c(O)nn3C)CS[C@H]12)c1csc(N)n1 [CEFTRIAXONE]
- Activity (Staphylococcus aureus [1]): 0%
- Activity (Enterobacter cloacae [2]): 29.2%
- Activity (Escherichia coli [3]): 5.5%
- Activity (Enterobacter cloacae [4]): 25%
- Activity [5]: 0%
- Activity (Klebsiella pneumoniae [6]): 0%
- Activity (Pseudomonas aeruginosa [7]): 30%
- Activity (Enterobacter cloacae [8]): 10.2%
- Activity (Klebsiella pneumoniae [9]): 3.9%
- Activity (Escherichia coli [10]): 2.5%
- Activity [11]: 0%
- Activity (Streptococcus pneumoniae [12]): 0%
- Activity (Pseudomonas aeruginosa [13]): 51.5%
- Activity (Staphylococcus aureus [14]): 0%
- Activity (Escherichia coli [15]): 3.7%
- Activity (Klebsiella pneumoniae [16]): 0%
- Activity [17]: 1.8%
- Activity (Enterobacter cloacae [18]): 5.9%
- Activity (Staphylococcus aureus [19]): 0%
- Activity [20]: 100%
- Activity (Klebsiella pneumoniae [21]): 0.4%
- Activity (Staphylococcus aureus [22]): 0%
- Activity [23]: 100%
- Activity (Staphylococcus aureus [24]): 100%
- Activity (Staphylococcus aureus [25]): 100%
- Activity (Enterobacter cloacae [26]): 13.9%
- Activity (Klebsiella pneumoniae [27]): 0%
- Activity [28]: 100%
- Activity (Pseudomonas aeruginosa [29]): 27%
- Activity (Haemophilus influenzae [30]): 0.3%
- Activity [31]: 8.1%
- Activity (Staphylococcus aureus [32]): 100%
- Activity (Staphylococcus aureus [33]): 100%
- Activity (Escherichia coli [34]): 1.7%
- Activity (Streptococcus pneumoniae [35]): 0%
- Activity [36]: 100%
- Activity (Staphylococcus aureus [37]): 100%
- Activity (Pseudomonas aeruginosa [38]): 30.2%
- Activity (Staphylococcus aureus [39]): 0%
- Activity (Streptococcus pneumoniae [40]): 0%
- Activity (Haemophilus influenzae [41]): 0%
- Activity (Haemophilus influenzae [42]): 0.3%
- Activity (Streptococcus pneumoniae [43]): 0%
- Activity [44]: 25%
- Activity (Escherichia coli [45]): 4.2%
- Activity (Haemophilus influenzae [46]): 0%
- Activity (Pseudomonas aeruginosa [47]): 33.3%

SMILES: C[C@@H](O)[C@H]1C(=O)N2C(C(=O)O)=C(S[C@@H]3CN[C@H](C(=O)N(C)C)C3)[C@H](C)[C@H]12 [MEROPENEM]
- Activity (Staphylococcus aureus [1]): 0%
- Activity (Enterobacter cloacae [2]): 0%
- Activity (Escherichia coli [3]): 0%
- Activity (Enterobacter cloacae [4]): 0%
- Activity [5]: 0%
- Activity (Klebsiella pneumoniae [6]): 12.5%
- Activity (Pseudomonas aeruginosa [7]): 0%
- Activity (Enterobacter cloacae [8]): 0%
- Activity (Klebsiella pneumoniae [9]): 18.9%
- Activity (Escherichia coli [10]): 0%
- Activity [11]: 0%
- Activity (Streptococcus pneumoniae [12]): 0.5%
- Activity (Pseudomonas aeruginosa [13]): 0%
- Activity (Staphylococcus aureus [14]): 0%
- Activity (Escherichia coli [15]): 0%
- Activity (Klebsiella pneumoniae [16]): 17.8%
- Activity [17]: 1.8%
- Activity (Enterobacter cloacae [18]): 0%
- Activity (Staphylococcus aureus [19]): 0%
- Activity [20]: 100%
- Activity (Klebsiella pneumoniae [21]): 13.6%
- Activity (Staphylococcus aureus [22]): 0%
- Activity [23]: 100%
- Activity (Staphylococcus aureus [24]): 100%
- Activity (Staphylococcus aureus [25]): 100%
- Activity (Enterobacter cloacae [26]): 0%
- Activity (Klebsiella pneumoniae [27]): 9.1%
- Activity [28]: 100%
- Activity (Pseudomonas aeruginosa [29]): 0%
- Activity (Haemophilus influenzae [30]): 0%
- Activity [31]: 9.3%
- Activity (Staphylococcus aureus [32]): 100%
- Activity (Staphylococcus aureus [33]): 100%
- Activity (Escherichia coli [34]): 0%
- Activity (Streptococcus pneumoniae [35]): 0%
- Activity [36]: 100%
- Activity (Staphylococcus aureus [37]): 100%
- Activity (Pseudomonas aeruginosa [38]): 0%
- Activity (Staphylococcus aureus [39]): 0%
- Activity (Streptococcus pneumoniae [40]): 0.4%
- Activity (Haemophilus influenzae [41]): 0%
- Activity (Haemophilus influenzae [42]): 0%
- Activity (Streptococcus pneumoniae [43]): 0%
- Activity [44]: 29.2%
- Activity (Escherichia coli [45]): 0%
- Activity (Haemophilus influenzae [46]): 0%
- Activity (Pseudomonas aeruginosa [47]): 0%
